Laboratory results: the supplement of paper PMC11451515

Tested on: SEM cells
Assay: cell viability relative to DMSO control; higher = less cytotoxic
Details: 48 h
Procedure, shortened: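 Before seeding, each leukemia line was adapted for at least four passages in each medium. NOMO1 or SEM cells (500 cells/well) and P12-Ichikawa cells (1000 cells/well) went into 1536-well plates at 5 μl, then received library compounds in DMSO by pin dosing across 11 threefold concentrations, 47 μM to 0.79 nM. Readout was CellTiter-Glo One luminescence after 48 h at 37°C, and viability is given as a per-plate percentage of DMSO wells, with cell-free wells as background.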

[1] = HPLM + 10% dialyzed FBS, 0.000781 µM
[2] = HPLM + 10% dialyzed FBS, 0.00234 µM
[3] = HPLM + 10% dialyzed FBS, 0.00702 µM
[4] = HPLM + 10% dialyzed FBS, 0.0211 µM
[5] = HPLM + 10% dialyzed FBS, 0.0632 µM
[6] = HPLM + 10% dialyzed FBS, 0.19 µM
[7] = HPLM + 10% dialyzed FBS, 0.569 µM
[8] = HPLM + 10% dialyzed FBS, 1.71 µM
[9] = HPLM + 10% dialyzed FBS, 5.12 µM
[10] = HPLM + 10% dialyzed FBS, 15.4 µM
[11] = HPLM + 10% dialyzed FBS, 46.1 µM
[12] = RPMI 5 mM glucose + 10% FBS, 0.000781 µM
[13] = RPMI 5 mM glucose + 10% FBS, 0.00234 µM
[14] = RPMI 5 mM glucose + 10% FBS, 0.00702 µM
[15] = RPMI 5 mM glucose + 10% FBS, 0.0211 µM
[16] = RPMI 5 mM glucose + 10% FBS, 0.0632 µM
[17] = RPMI 5 mM glucose + 10% FBS, 0.19 µM
[18] = RPMI 5 mM glucose + 10% FBS, 0.569 µM
[19] = RPMI 5 mM glucose + 10% FBS, 1.71 µM
[20] = RPMI 5 mM glucose + 10% FBS, 5.12 µM
[21] = RPMI 5 mM glucose + 10% FBS, 15.4 µM
[22] = RPMI 5 mM glucose + 10% FBS, 46.1 µM
[23] = RPMI 5 mM glucose + 10% dialyzed FBS, 0.000781 µM
[24] = RPMI 5 mM glucose + 10% dialyzed FBS, 0.00234 µM
[25] = RPMI 5 mM glucose + 10% dialyzed FBS, 0.00702 µM
[26] = RPMI 5 mM glucose + 10% dialyzed FBS, 0.0211 µM
[27] = RPMI 5 mM glucose + 10% dialyzed FBS, 0.0632 µM
[28] = RPMI 5 mM glucose + 10% dialyzed FBS, 0.19 µM
[29] = RPMI 5 mM glucose + 10% dialyzed FBS, 0.569 µM
[30] = RPMI 5 mM glucose + 10% dialyzed FBS, 1.71 µM
[31] = RPMI 5 mM glucose + 10% dialyzed FBS, 5.12 µM
[32] = RPMI 5 mM glucose + 10% dialyzed FBS, 15.4 µM
[33] = RPMI 5 mM glucose + 10% dialyzed FBS, 46.1 µM

| Structure (SMILES) | cell viability [1] [%] | cell viability [2] [%] | cell viability [3] [%] | cell viability [4] [%] | cell viability [5] [%] | cell viability [6] [%] | cell viability [7] [%] | cell viability [8] [%] | cell viability [9] [%] | cell viability [10] [%] | cell viability [11] [%] | cell viability [12] [%] | cell viability [13] [%] | cell viability [14] [%] | cell viability [15] [%] | cell viability [16] [%] | cell viability [17] [%] | cell viability [18] [%] | cell viability [19] [%] | cell viability [20] [%] | cell viability [21] [%] | cell viability [22] [%] | cell viability [23] [%] | cell viability [24] [%] | cell viability [25] [%] | cell viability [26] [%] | cell viability [27] [%] | cell viability [28] [%] | cell viability [29] [%] | cell viability [30] [%] | cell viability [31] [%] | cell viability [32] [%] | cell viability [33] [%] |
| --- | --- | --- | --- | --- | --- | --- | --- | --- | --- | --- | --- | --- | --- | --- | --- | --- | --- | --- | --- | --- | --- | --- | --- | --- | --- | --- | --- | --- | --- | --- | --- | --- | --- |
| COc1ccc(-c2ccc3ncc4c(c3c2)n(-c2ccc(N3CCNCC3)c(C(F)(F)F)c2)c(=O)n4C)cn1 | 72.5 | 65.5 | 54.5 | 44.2 | 37.2 | 31.8 | 31.2 | 4.63 | 4.31 | 3.49 | 2.31 | 95.8 | 77.7 | 60.3 | 55.9 | 45.1 | 23.6 | 21.5 | 5.49 | 5.48 | 3.64 | 2.49 | 70 | 73.5 | 54.5 | 46.5 | 46 | 25.1 | 18.4 | 5.55 | 5.1 | 3.87 | 2.59 |
| C[C@H](NC(=O)c1sccc1OCc1ccc(Cl)cc1)c1ccccc1 | 98.8 | 94.4 | 82.9 | 88.2 | 94.8 | 83.4 | 91.1 | 92.5 | 69.5 | 80.1 | 51 | 96.9 | 90.9 | 92.5 | 106 | 112 | 95.6 | 85.1 | 112 | 73.3 | 115 | 20.4 | 107 | 97.3 | 94.7 | 94.1 | 101 | 101 | 97.9 | 101 | 70.1 | 99.6 | 59.3 |
| CCc1ccc(CCOc2ccc(CC3SC(=O)NC3=O)cc2)nc1 (stereo unspecified) | 120 | 115 | 112 | 113 | 124 | 108 | 42.4 | 117 | 122 | 119 | 89.6 | 93.5 | 86.9 | 88.1 | 85.9 | 85.6 | 83.4 | 61 | 94.9 | 87 | 80 | 80.7 | 112 | 115 | 111 | 143 | 129 | 116 | 68.6 | 137 | 122 | 122 | 110 |
| CNCCCC12CCC(c3ccccc31)c1ccccc12 | 96.5 | 108 | 105 | 99.7 | 116 | 114 | 110 | 105 | 93.5 | 89.6 | 59.5 | 87.3 | 97.3 | 98.2 | 99.4 | 76.6 | 104 | 106 | 100 | 90.5 | 85.2 | 63.8 | 113 | 125 | 105 | 110 | 111 | 115 | 128 | 107 | 106 | 118 | 75.5 |
| COc1ccc([C@@H]2CC(=O)c3c(O)cc(O[C@@H]4O[C@H](CO[C@@H]5O[C@@H](C)[C@H](O)[C@@H](O)[C@H]5O)[C@@H](O)[C@H](O)[C@H]4O)cc3O2)cc1O | 98.6 | 101 | 119 | 114 | 109 | 120 | 103 | 102 | 112 | 107 | 74 | 117 | 106 | 107 | 102 | 111 | 106 | 115 | 116 | 103 | 111 | 52.7 | 110 | 138 | 108 | 115 | 126 | 114 | 131 | 120 | 119 | 127 | 44 |
| COCC1(CO)C(=O)C2CCN1CC2 (stereo unspecified) | 76.2 | 81.7 | 112 | 93.8 | 96.3 | 104 | 4.05 | 73.6 | 87.1 | 71 | 10.3 | 102 | 105 | 137 | 134 | 137 | 144 | 3.64 | 111 | 99.3 | 77.2 | 5.79 | 70.2 | 85.2 | 118 | 105 | 124 | 116 | 3.95 | 90.6 | 103 | 61.8 | 16.9 |
| CN[C@@H]1[C@@H](O)[C@@H](O[C@@H]2[C@@H](O)[C@H](O[C@H]3O[C@H](CN)[C@@H](O)[C@H](O)[C@H]3O)[C@@H](N)C[C@H]2NC(=O)[C@@H](O)CN)OC[C@]1(C)O | 116 | 100 | 108 | 107 | 91.9 | 105 | 105 | 98.9 | 98 | 102 | 97.1 | 118 | 116 | 125 | 129 | 129 | 111 | 123 | 111 | 111 | 120 | 124 | 121 | 124 | 118 | 125 | 136 | 115 | 135 | 106 | 127 | 129 | 101 |
